Common to all, as to format: cell-based
For assay [1], the system named is Candida famata regulatory mutants able to overproduce riboflavin. Nature of the assay: Sensitivity to copper ions, solid Burkholder medium (Table 12). On the set-up: key: +++: strong growth; ++: weak growth; +: very weak growth; —: absence of growth. The procedure:
(§1) The sensitivity of the regulatory mutants of the yeast C. famata which overproduce riboflavin in iron rich medium probably due to defects in genes regulating repression (repression mutants), to different ions of heavy metals was studied. For this, the analyzed strains were streaked on the YPD plates and then were replica-plated on Burkholder synthetic medium containing leucine (40 μg/ml). The C.famata mutants L20105-40-1-11, L20105-40-1-17, L20105-3-2-1, L20105-3-2-8 and L20105-3-2-12 (all contained leu2 marker) accumulated 80–100 μg riboflavin/ml. The mutants #75, 4-48, 2-5 produced much higher amounts of riboflavin (200–250 μg/ml) but were prototrophs for leucine synthesis. Strain #75 was characterized by retarded growth comparing with other mutants. The strains VKM Y-9 (wild type) and L20105 (leu2) were used as the control strains.
Mutants overproducing lower amounts of riboflavin appeared to be more sensitive to CuSO4 (0.15 mM) than that of the strains producing higher amounts of riboflavin (inhibitory concentration 0.5 mM) (Table 12).

For assay [2] the test system is unchanged. As to the kind of experiment: Sensitivity to K2Cr2O7, solid Burkholder medium with 0.3 M sucrose (Table 13). The protocol:
as §1

Assay [3] deals with Pichia guilliermondii wild type and regulatory mutants (rib81). Nature of the assay: Sensitivity after electroporation to K2Cr2O7, medium with 0.5% glycerol (Table 21). The conditions noted are these: Cr^+6 250–350 μM, 0.6 M KCl. An excerpt: (§2) The possibility for positive selection of P. guilliermondii rib81 transformants unable to overproduce riboflavin in minimal medium was studied. For this, the toxicity of K2Cr2O7 (Cr^+6) was compared for the P. guilliermondii wild-type strain ATCC 9058 and regulatory mutants P. guilliermondii rib81 9-20 and 20-2. The cells were pregrown in liquid YPD to OD 1.5–2.0 (540 nm) and electroporated according to the protocol described (Example 34). Electroporated cells were washed three times with 10×volume of 0.6 M KCl and then the volume was adjusted to 1 ml. Then the cells were plated at 0.2 ml suspension per plate which contained 0.5% glycerol, 0.6 M KCl and K2Cr2O7 (50–1000 μM).
(§3) The visual selection of the non-overproducing riboflavin transformants is rather arbitrary and uncertain. Therefore it was decided to develop the method for positive selection of the transformants using tentative differences in sensitivity to K2Cr2O7 of wild-type P. guilliermondii and the regulatory mutants rib81 9-20 and 20-2. After 6 days of cultivation in the medium with 0.5% glycerol, it was shown that K2Cr2O7 at 150–180 μM inhibited growth of regulatory mutant 9-20 more strongly than that of the wild strain (Table 21).

Assay [4] has the same test system. As to the kind of experiment: Sensitivity after electroporation to K2Cr2O7, Burkholder medium with 0.3 M sucrose (Table 22). Details: key: +++: strong growth; ++: weak growth; —: absence of growth.
For assay [5] the test system is unchanged. Nature of the assay: Sensitivity after electroporation to K2Cr2O7, medium with 0.5% glycerol (Table 21). The conditions noted are these: #9-20 (leu2); K2Cr2O7 125 μM. On the set-up: key: +++: strong growth; ++: weak growth; +: very weak growth; —: absence of growth.
Text: as §2, §3

Regarding `O=S(=O)([O-])[O-].[Cu+2]` [CuSO4], the growth result in assay [1] (#2-5, Cu^+2 0.45 mM) was “+”; in assay [1] (#4-48, Cu^+2 0.45 mM), “+”; in assay [1] (#75, Cu^+2 0.45 mM), “+”; in assay [1] (L20105 (leu2), Cu^+2 0.6 mM), “+”; in assay [1] (L20105-3-2-4, Cu^+2 0.1 mM), “+”; in assay [1] (L20105-3-2-8, Cu^+2 0.1 mM), “+”. For the same molecule, in assay [1] (L20105-3-2-12, Cu^+2 0.1 mM), the growth entry was “+”.

On to `[K+].[K+].[O]=[Cr](=[O])([O-])[O][Cr](=[O])(=[O])[O-]` [K2Cr2O7], for which the “concentration inhibiting growth of strain #75” value in assay [2] (medium with 0.3 M sucrose) was 100 µM. The “concentration inhibiting growth of strains with higher riboflavin production” value in assay [2] (medium with 0.3 M sucrose) came to 175 µM. Besides, in assay [2] (medium with 0.3 M sucrose), the “concentration totally inhibiting growth of mutants with lower levels of riboflavin overproduction” value was found to be 125 µM. Also, the “effect of subinhibitory concentrations on flavinogenesis of all tested strains” value in assay [2] (riboflavin overproducers and wild-type strains) is “stimulated flavinogenesis”. Further, in assay [3], the “growth of wild-type strain P. guilliermondii ATCC 9058” value was “only slightly depressed”. The growth entry in assay [4] (#9-20 (leu2), K2Cr2O7 100 μM) is “+++”; in assay [4] (#9-20 (leu2), K2Cr2O7 150 μM), “+++”; in assay [4] (#9-20 (leu2), K2Cr2O7 200 μM), “+++”; in assay [4] (#9-20 (leu2), K2Cr2O7 250 μM), “+++”; in assay [4] (#9-20 (leu2), K2Cr2O7 300 μM), “+++”; in assay [4] (#9-20 (leu2), K2Cr2O7 350 μM) it was “+++”. Further, the growth result is on record as “—” in assay [4] (#9-20 (leu2), K2Cr2O7 450 μM); “—” in assay [4] (#9-20 (leu2), K2Cr2O7 500 μM); “—” in assay [4] (#9-20 (leu2), K2Cr2O7 550 μM); “—” in assay [4] (#9-20 (leu2), K2Cr2O7 600 μM); “+++” in assay [4] (ATCC9058, K2Cr2O7 100 μM); “+++” in assay [4] (ATCC9058, K2Cr2O7 150 μM). The growth entry in assay [4] (ATCC9058, K2Cr2O7 200 μM) was “+++”; in assay [4] (ATCC9058, K2Cr2O7 250 μM) it was “+++”; in assay [4] (ATCC9058, K2Cr2O7 300 μM), “+++”; in assay [4] (ATCC9058, K2Cr2O7 350 μM), “+++”; in assay [4] (ATCC9058, K2Cr2O7 450 μM) it was “—”; in assay [4] (ATCC9058, K2Cr2O7 500 μM), “—”. Also, the growth entry is “—” in assay [4] (ATCC9058, K2Cr2O7 550 μM); “—” in assay [4] (ATCC9058, K2Cr2O7 600 μM); “+” in assay [5].

The values are drawn from patent publication US7009045B2 (priority 2000, dated 2006).
